From US20210330611A1, “THERAPY FOR NEUROLOGICAL DISEASES/DISORDERS” (priority 2020, published 2021)

Key:
human macrophages = assay: ROS production (DHE) in fibrin-stimulated human macrophages; assay type: cell-based; settings: fibrin 24 h, 5 μM inhibitor, FIG. 6b
Procedure: Human macrophage cultures. Human peripheral blood mononuclear cells (PBMCs) were purchased from AllCells, LLC (Alameda, Calif.). To differentiate PBMC into monocyte-derived macrophages, 2×10^6 PBMC/mL were plated in RPMI-1640 media supplemented with 10% FBS, 1% penicillin-streptomycin (Corning), and 50 ng/ml human M-CSF (300-25, Peprotech) in tissue-culture treated dishes (Corning). After 24 h, non-adherent cells were removed, and adherent cells were cultivated for 7-8 additional days at 37° C. in 5% CO2 to promote their full differentiation into macrophages. Oxidant detection with DHE. Intracellular concentrations of ROS were measured using dihydroethidium (DHE) as described (9). Cultured BMDMs or human macrophages were incubated in medium containing 5 μM DHE (Invitrogen) for 30 min Cells were plated on 96-well, black μ-clear-bottom microtiter plates (Greiner Bio-One) pre-coated with 25 μg/ml fibrin. For GGT inhibition, BMDMs or human macrophages were pre-incubated with 5 μM acivicin or GGsTop for 1 h, and the cells were plated on fibrin-coated 96-well plates as described above. PBS was used as vehicle control. Cells were then incubated for 24-48 h and fixed with 4% PFA for 10 min. The DHE fluorescence was detected at an excitation/emission wavelength of 518 nm/605 nm using a SpectraMax M5 microplate reader (Molecular Devices) with SoftMax Pro 5.2 software (Phoenix Technologies Ltd.).

BMDMs = assay type: cell-based, mouse; settings: 24 h, FIG. 12
Procedure: FIGS. 12A-E. Effects of acivicin on microglia, macrophage and whole blood cell numbers. a, Representative images showing morphology and density of primary microglia treated with vehicle or acivicin for 48 h stained with nuclei marker Hoechst or CellMask Red Whole Cell Stain. Quantification of the total number of microglia. Data are representative of one experiment with technical replicates (open symbols). b, Representative confocal images showing morphology and density of control- and acivicin-treated BMDMs treated for 24 h. Scale bar, 100 μm. Insets depict digitally zoomed in areas of regions of interest. Quantification of the total number of BMDMs in the field of view. […] Cell viability of single CD45^+ cells was assessed by Sytox blue live/dead nuclei stain. Quantification of percent cell viability of CD45^+ BMDMs treated with acivicin or left untreated. Data are from 2 independent experiments with n=4 mice per group (mean±s.d.). d, Quantification of complete blood count analysis of white blood cells (WBCs), red blood cells (RBC), platelets (PLT) (left) and composition of WBCs (right) of blood samples from healthy mice treated with saline or acivicin for 10 days. […] Quantification of total microglia cell numbers in healthy mice treated with acivicin or saline. […]

[1] = system: PLP139-151 EAE in SJL/J mice; assay: Relapsing PLP139-151 EAE in SJL/J mice, clinical scores; assay type: in vivo, mouse; settings: therapeutic, daily from peak of initial paralytic episode, FIG. 7c
[2] = Serum protein carbonyl content assay in MOG35-55 EAE mice; assay type: in vivo, mouse; settings: FIG. 7g
Procedure: Protein carbonyl content assay. Blood was isolated from EAE mice via terminal cardiac puncture, and serum levels of protein carbonylation were measured with OxiSelect™ Protein Carbonyl ELISA (Cell Biolabs) according to the manufacturer's protocol. The absorbance at 450 nm was measured using a SpectraMax M5 microplate reader (Molecular Devices) with SoftMax Pro 5.2 software (Phoenix Technologies Ltd.).

[3] = system: LPS injection in the substantia nigra; assay: LPS-induced neurodegeneration in substantia nigra, TH and Iba-1 immunohistochemistry; assay type: in vivo, mouse
Procedure: Stereotactic LPS injection and drug treatment. Mice were anaesthetized with isoflurane and placed in a stereotactic apparatus (David Kopf Instruments). LPS (Sigma-Aldrich) was dissolved in endotoxin-free distilled water (HyClone) and was diluted to 1 μg/ml with PBS. LPS (2 μl of 1 μg/ml) or PBS was slowly injected (0.3 μl/min) using a 10-μl Hamilton syringe attached to a 33-G needle into the substantia nigra at coordinates (anteroposterior, 3.0 mm; mediolateral, 1.3 mm; dorsoventral, 4.7 mm from the bregma, according to Paxinos and Watson) Animals received acivicin (5 mg/kg) or saline intraperitoneally beginning 5 days before LPS injection and for 7 days after LPS injection. After 12 h of the LPS injection, the substantia nigra area was immediately collected on ice and kept at −80° C. for later analysis of GGT activity. After 7 d of the LPS injection, mice were perfused with 4% PFA, and the brains were post-fixed in 4% PFA overnight at 4° C. […] Images were acquired with all-in-one BZ-X700 fluorescence microscope. Images were quantified using NIH ImageJ (version 1.50) by blinded observers.

primary rat microglia = assay: Cell toxicity (dead cells, size <150 μm2) in LPS assay; settings: primary microglia HTS, LPS stimulation; decreased size (<150 μm^2) as marker of toxicity

**Q.** For `N[C@H](C(=O)O)[C@@H]1CC(Cl)=NO1` [Acivicin, (2S)-2-amino-2-[(5S)-3-chloro-4,5-dihydro-1,2-oxazol-5-yl] acetic acid], which “ROS generation (DHE) in human macrophages” value (human macrophages) is on record?
**A.** Its value is “decreased”.

**Q.** And the “macrophage cell number in vitro” value (BMDMs)?
**A.** Its value is “did not affect”.

**Q.** And the “clinical severity during relapses” value [1]?
**A.** The value was “suppressed”.

**Q.** And the “serum protein carbonyl content” value [2]?
**A.** Its value is “markedly reduced”.

**Q.** And the “microglial activation (Iba-1)” value ([3]; 7 d after LPS, FIG. 15c)?
**A.** The value was “decreased”.

**Q.** And the “dopaminergic neuronal survival (TH)” value ([3]; mouse, in vivo)?
**A.** Its value is “improved”.

**Q.** What about the “LPS % cell toxicity” value (primary rat microglia) of the same molecule?
**A.** The value was 4%.
